Test results published in patent US20150216820A1, “QUINONE DERIVATIVES FOR USE IN THE MODULATION OF REDOX STATUS OF INDIVIDUALS” (Edison Pharmaceuticals, Inc., priority 2012, published 2015).
Entries after “also recorded” stand apart in the source; their conditions may differ.

Assays:
[1] = Plasma trough drug concentration in Leigh syndrome subjects; type: in vivo; conditions: 100 mg three times daily, eight hours post dosing
Procedure: (§1) The initial clinical dose was selected based on laboratory and human patient pharmacokinetic modeling data. Specifically, a three-compartment model for oral administration was employed that included GI absorption delay, as well as one central and one peripheral compartment. A plasma trough drug concentration was targeted 10-20 fold above the ˜10 nM in vitro EC50 value of alpha-tocotrienol quinone that protected Leigh syndrome (SURF1) primary cells against glutathione depletion-mediated apoptotic cell death. Based on serum values of alpha-tocotrienol quinone obtained in two Leigh syndrome subjects after a single 100 mg dose of alpha-tocotrienol quinone was administered, a clinical dose of 100 mg three times daily was calculated and selected as the initial dose. […] This was consistent with the in vitro target dose and was confirmed in multiple pediatric subjects with inherited mitochondrial disease (Enns, G. M., et al., Mol. Genet. Metab. 105, 91-102 (2012); Blankenberg, F., et al., Ann. Neurol. 70, S148-S148 (2011)). This dose was also safely below the preclinical no observed adverse effect level (NOAEL).

plasma creatine = assay: Plasma creatine levels (exploratory biomarker for mitochondrial disease); type: in vivo, human; conditions: p=0.15
Procedure: (§2) Intracellular reduced glutathione (GSH) serves as the cell's principal endogenous antioxidant. Leigh syndrome and other mitochondrial diseases are associated with decreased GSH levels as the high level of oxidative stress and free oxygen radicals deplete cellular GSH reserves. In order to verify alpha-tocotrienol quinone mechanism of action and to correlate this action with clinical benefit, intracellular (lymphocyte) glutathione levels were measured in all patients. The ratio of recued-to-oxidized glutathione and reduced glutathione to total glutathione levels were calculated to assess the effect of alpha-tocotrienol quinone on repleting reduced intracellular glutathione. In addition, total serum thiol levels were measured prior to and following initiation of treatment. Plasma creatine levels—an exploratory biomarker for mitochondrial disease—was also obtained.

[2] = tested on: Leigh syndrome (SURF1) primary cells; assay: In vitro protection of patient primary cells against glutathione depletion-mediated apoptotic cell death; type: cell-based, human
Procedure: as §1

[3] = tested on: children with genetically-confirmed Leigh syndrome; assay: Safety and tolerability in the Leigh syndrome trial; type: in vivo, human
Procedure: There were three serious adverse events due to intercurrent illness during the three month trial (two cases of bronchitis and one case of salmonellosis, all resolved). […] All recorded values were within the normal range for the clinical laboratories used for the analysis.
All subjects received 100 mg of alpha-tocotrienol quinone three times daily orally or via gastrostomy tube. Total treatment length was three months, with an extension phase for children who completed the initial treatment period. All adverse and serious adverse events were tracked in the trial database. In addition, all held doses due to intolerance of alpha-tocotrienol quinone or any other reason were also recorded.

[4] = tested on: children with genetically-confirmed Leigh syndrome; assay: Phase 2 single arm subject-controlled trial in children with Leigh syndrome: clinical outcome scales (NPMDS, GMFM, PedsQL, MD-CRS); type: in vivo, human
total serum thiol levels = assay: Total thiols in serum/plasma (DTNB, spectrophotometric); type: in vivo, human; conditions: three-month time point; p=0.008
Procedure: as §2
Total thiols were determined in plasma following the method reported by M.-L. Hu (Methods Enzymol. 233, 380-385 (1994)). 50 μl plasma was mixed with 1 ml of the Tris-EDTA buffer and the absorbance at 412 nm was measured. Then, 20 μl of 10 mM DTNB were added. After 15 min incubation at room temperature, the absorption at 412 nm (ε=13,600 cm^−1M^−1) was measured together with a DTNB blank.

[5] = tested on: intracellular (lymphocyte) glutathione; assay: HPLC determination of lymphocyte glutathione forms (GSH, GS-Pro, GSSG) in treated Leigh syndrome patients; type: in vivo, human
Procedure: The determination of the different forms of GSH obtained from lymphocytes can be performed in a manner similar to the method previously reported by Pastore et al. (Clin. Chem. (Washington, D.C.) 44, 825-832 (1998)). Briefly, 30 μl of 4 M NaBH4, 20 μl of 2 mM EDTA/DTT, 10 μl of 1-octanol and 20 μl of 1.8 M HCl are placed in the derivatization vial containing 30 μl of sample. After the mixture is incubated for three min, 100 μl of 1.5 M N-ethylmorpholine buffer, pH 8.0, 400 μl of distilled water, and 20 μl of 25 mM bromobimane are added. After an additional three-min incubation, 40 μl of acetic acid are added and 20 μl (for free GSH) or 80 μl (for GSSG and GS-Pro) of this mixture are injected into the column. The thiol derivatives are quantified by HPLC (Agilent Technologies 1100 HPLC with a fluorescence detector-excitation at 390 nm and an emission at 478 nm). The analytes are separated for detection using a C18 column (Hypersil ODS; 150×4.6 mm, 3 micron) at 1.5 ml/min using an aqueous phase of aqueous 30 mM ammonium nitrate and 40 mM ammonium formate at pH 3.6 with an increasing acetonitrile gradient. HPLC determinations of the various forms of GSH are carried out on lymphocytes sonicated three times for two sec in 0.1 ml of 0.1 M potassium-phosphate buffer, pH 7.2 using a Model VC 130 Vibra Cell™ ultrasonic processor. For free GSH determinations, 100 μl of 12% sulfosalicylic acid are added to 50 μl of cells lysate, and analytes content on the acid-soluble fraction are determined. The protein pellet is dissolved in 150 μl of 0.1 N NaOH, and protein bound glutathione (GS-Pro) determined. For GSSG determination, cells are sonicated in the presence of 5 mM N-ethylmaleimide (NEM); 100 μl of 12% sulfosalicylic acid are added to 50 μl homogenates, and analytes content on the acid-soluble fraction are determined. Protein concentrations are quantified by BCA-protein assay.
as §2
For lymphocytes and erythrocyte isolation from whole blood, venous blood samples were layered on the top of a discontinuous gradient consisting of 3 ml of Hystopaque®-1119 and 3 mL of Hystopaque®-1077. Gradients were centrifuged at 750 g for 40 min at 4° C. The lymphocyte layer was transferred to a 15 ml centrifuge tube, diluted to a volume of 10 ml with 0.9% NaCl and centrifuged at 750 g for 40 min. The supernatant was removed and, if necessary, the lysis of erythrocytes was performed by adding 2 ml H2O. After 90 s, 2 ml of 1.8% NaCl solution was added and cells washed four times with 0.9% NaCl. The pellet of lymphocytes was centrifuged at 750 g for 10 min and stored at −80° C. until HPLC analysis.
The determination of the different forms of GSH obtained from lymphocytes was performed, with little modification to a method previously reported (Pastore, A., et al. Clin. Chem. (Washington, D.C.) 44, 825-832 (1998)). Briefly, 30 μl of 4 M NaBH4, 20 μl of 2 mM EDTA/DTT, 10 μl of 1-octanol and 20 μl of 1.8 M HCl were placed in the derivatization vial containing 30 μl of sample. […]

[6] = three months, 100 mg orally three times daily, p=0.01
[7] = LS patients after six-months treatment, n = 10

CC(C)=CCC/C(C)=C/CC/C(C)=C/CC[C@@](C)(O)CCC1=C(C)C(=O)C(C)=C(C)C1=O [alpha-tocotrienol quinone]
average trough concentration [1]: ~200 nM
plasma creatine, overall average decrease (plasma creatine): 20.2 points
EC50 [2]: ~10 nM
clinical chemistry laboratory parameters incl. liver and kidney function tests and coagulation parameters ([3]; three month trial): no abnormalities
other reported adverse conditions ([3]; three month trial): mild sleepiness and hypotonia
serious adverse events due to intercurrent illness ([3]; three month trial, two bronchitis, one salmonellosis, all resolved): three
drug related adverse events ([3]; three months, 100 mg three times daily): No drug related adverse events; also recorded: not associated with any drug-induced adverse events
clinical disease progression ([4]; all children, three months, regardless of age, genotype, severity): arrest of disease progression and reversal
NPMDS score, patient 1, earlier value ([4]; patient 1, before continued treatment to six months): 23.5
NPMDS score, patient 1, later value ([4]; patient 1, treated for six months): 21.1
GMFM score, patient 2 ([4]; patient 2, at six months, increased from 7.6): 19.8
NPMDS score, patient 2, earlier value ([4]; patient 2, before continued treatment to six months): 54
change in GMFM score, patient 2 ([4]; patient 2, following three months of treatment): no change
NPMDS score, patient 2, later value ([4]; patient 2, treated for six months): 46
NPMDS score, patient 3, earlier value ([4]; patient 3, before continued treatment to six months): 27.8
NPMDS score, patient 3, later value ([4]; patient 3, treated for six months): 25.7
change in GMFM score, patient 7 ([4]; patient 7, score 97.5 prior to treatment (maximum 100)): did not change
clinical outcomes (NPMDS, neuromuscular function, health related quality of life, dystonia and spasticity), FIG. 1 ([4]; prior to vs following three months of treatment): significant improvement
average improvement in total NPMDS score from baseline ([4]; three months): 25%
NPMDS sections 1-3 (organ system function), mean improvement ([4]; three months, 100 mg orally three times daily, p=0.005): 7.1
GMFM, mean improvement [4, 6]: 8.9
NPMDS section 4 (quality of life), average improvement [4, 6]: 4.6
PedsQL Neuromuscular Module, mean improvement ([4]; three months, 100 mg orally three times daily, p=0.03): 14.6
Movement Disorder-Childhood Rating Scale (MD-CRS), improvement in each child ([4]; three months, secondary endpoint): one class
time to clinical response ([4]; universal and durable): within eight weeks
total serum thiol levels, mean change (total serum thiol levels): 0.14
GS-Pro, lymphocytes, median [5, 7]: 0.57 nmol/mg proteins
GSH, lymphocytes, median [5, 7]: 28.92 nmol/mg proteins
GSSG, lymphocytes, median [5, 7]: 1.47 nmol/mg proteins
Tot GSH, lymphocytes, median [5, 7]: 32.47 nmol/mg proteins
overall glutathione charge (GSSG/GSH and GSSG/total glutathione ratios), FIG. 2 ([5]; all patients, over treatment time): rapid normalization
oxidized-to-reduced glutathione levels after treatment ([5]; decrease from baseline ratio mean 3.1+/-2.1, p=0.005): 0.25
time to changes in reduced glutathione levels and oxidized-to-reduced glutathione ratios ([5]; in most of the patients): ≤ 4 weeks
time to biochemical response (glutathione charge) ([5]; in several subjects, preceding clinical response): within two weeks
reduced glutathione in isolated lymphocytes after treatment ([5]; increase from 8.5 at baseline, p=0.002): 25.1 nmol/mg cell protein
oxidized glutathione after treatment ([5]; reduction, p=0.005): 0.25 nmol/mg cell protein
